Measurements as given in PubChem BioAssay (NCI).
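Exposure lasted 48 hours, with cells grown in 96-well plates and compounds tested at five concentrations. GI50 marks 50% less growth. TGI marks complete inhibition of growth.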

Key:
Experiment in all cases: NCI anticancer screen, dose series, 48 h
LOX IMVI melanoma = test system: LOX IMVI melanoma
TK-10 renal = test system: TK-10 renal
M14 melanoma = test system: M14 melanoma
SW-620 colon = test system: SW-620 colon
HL-60(TB) leukemia = test system: HL-60(TB) leukemia
SR leukemia = test system: SR leukemia
PC-3 prostate = test system: PC-3 prostate
MCF7 breast = test system: MCF7 breast
EKVX NSCLC = test system: EKVX NSCLC
DU-145 prostate = test system: DU-145 prostate

SMILES	TGI (LOX IMVI melanoma)	TGI (TK-10 renal)	TGI (M14 melanoma)	TGI (SW-620 colon)	TGI (HL-60(TB) leukemia)	TGI (SR leukemia)	TGI (PC-3 prostate)	TGI (MCF7 breast)	TGI (EKVX NSCLC)	TGI (DU-145 prostate)	GI50 (SR leukemia)	GI50 (LOX IMVI melanoma)	GI50 (PC-3 prostate)	GI50 (TK-10 renal)	GI50 (SW-620 colon)	GI50 (HL-60(TB) leukemia)	GI50 (MCF7 breast)	GI50 (EKVX NSCLC)	GI50 (DU-145 prostate)
CC1(C)CCCC2(C)[C@@H]1CC[C@]13C[C@](C)(CC[C@@H]21)[C@@H]3CO (some centres undefined)	> 100 µM	> 100 µM	> 100 µM	> 100 µM	> 100 µM														
CCOC(=O)c1csc(NC(=O)CCN2CCOCC2)n1	> 100 µM	> 100 µM	> 100 µM	> 100 µM	94.4 µM	> 100 µM	> 100 µM	> 100 µM	> 100 µM	> 100 µM									
COc1ccc2c(c1)C(=O)/C(=C/c1ccccc1)C2			> 100 µM			> 100 µM	> 100 µM	> 100 µM		> 100 µM									
CCNc1nc2c(=O)n(C)c(=O)n(C)c2s1	> 100 µM	> 100 µM	> 100 µM	> 100 µM	> 100 µM				> 100 µM										
C=C1CC2(C)CCC(OC(=O)C3(C)OC3C)C(C)(OC(C)=O)C2CC1=C(C)C (centres undefined)	> 100 µM	> 100 µM	> 100 µM	> 100 µM	76.1 µM	> 100 µM	> 100 µM	> 100 µM	> 100 µM	> 100 µM									
CC12CCC3C(CCC4(O)C=CCCC34C=O)C1(O)CC(O)C2c1ccc(=O)oc1 (centres undefined)	0.216 µM			0.222 µM				0.344 µM	0.087 µM										
O=c1n(Cc2ccccc2)c2ccccc2n1CC1CS1 (centres undefined)	> 100 µM	> 100 µM	> 100 µM	> 100 µM	> 100 µM	> 100 µM			> 100 µM										
COc1cc(CN(C)N2C(=O)c3cccc4cc([N+](=O)[O-])cc(c34)C2=O)cc(OC)c1OC			> 100 µM		> 100 µM	> 100 µM	> 100 µM	> 100 µM		> 100 µM									
O=C1CNC(=O)N1	> 1120 µM			> 1120 µM	> 1120 µM			> 1120 µM	> 1120 µM										
O=C(NC/C=C/CO)c1ccccc1	> 100 µM			> 100 µM	> 100 µM			> 100 µM	> 100 µM										
Cc1cc(C)c(S(=O)(=O)N(CCCCCCN)OCCCON(CCCCCCN)S(=O)(=O)c2c(C)cc(C)cc2C)c(C)c1	3.19 µM	3.07 µM	3.03 µM		> 100 µM		3.15 µM	3.66 µM	3.19 µM	2.76 µM									
ClCc1nnc2n1-c1ccc(Cl)cc1SC2	2.82 µM			24 µM	3.51 µM			12.2 µM	> 51.9 µM										
Fc1cc(C2=Nn3c(nnc3-c3cc(F)c(Cl)cc3Cl)SC2)c(Cl)cc1Cl	45.6 µM	> 100 µM		47.2 µM	> 100 µM	> 100 µM	> 100 µM	> 100 µM	90.3 µM	> 100 µM	25.4 µM	21.6 µM	16.9 µM	37.4 µM	22.6 µM	80.4 µM	16.8 µM	24.6 µM	36.6 µM
